Assay results taken from patent US9725490B2, “ERAP1-derived peptide and use thereof” (TOKUSHIMA UNIVERSITY, priority 2011, dated 2017).
Where a SMILES comes first, the peptide text is derived from it. The star is where a group is joined. Cbz = O=C(OCc1ccccc1)*

Columns and labels:
[1] = test system: phosphorylation of ERAP1 and PHB2/REA; assay: PKA inhibition by H-89, immunoblotting of ERAP1 and PHB2/REA phosphorylation, MCF-7; format: cell-based, human
Protocol: Then, the cell lysate solution was immunoprecipitated with anti-ERAP1 antibody. Furthermore, the phosphatase activity of the obtained sample was calculated. […] MCF-7 cells suppressed for expression of PKA or PKB, or both of PKA and PKB by siRNA method, were treated with 10 μM ERAP1 peptide. Then, immediately, the cells were stimulated with 10 nM E2 for 24 hours. […] MCF-7 cells were treated with H-89 for 30 minutes and washed with PBS. Then, the cells were treated with 10 μM ERAP1-PEPTIDE. Then, immediately, the cells were stimulated with 10 nM E2 for 24 hours. […] (S39) is caused. MCF-7 cells suppressed for expression of PKA by siRNA method, were stimulated with 10 nM E2 for 24 hours. In addition, MCF-7 cells were treated with H-89 for 30 minutes and washed with PBS. Then, immediately, the cells were stimulated with 10 nM E2 for 24 hours. […] Then, immediately, the cells were stimulated with 10 nM E2 for 24 hours. […] MCF-7 cells suppressed for expression of PKCα by siRNA method were treated with 10 μM ERAP1 peptide. Then, immediately, the cells were stimulated with 10 nM E2 for 24 hours. The cells were fractionated into cytoplasm and nuclear fractions by specific gravity centrifugation.

ERα = ERα down-regulation and polyubiquitination in MCF-7 cells; format: cell-based, human; conditions: MCF-7, E2 in the presence of MG132, no peptide
Protocol: FIG. 4-5 is a diagram illustrating that the ERAP1-peptide promotes nuclear translocation of PHB2. […] Then, the protein level and the mRNA level for the expression of ERα were obtained by Western blotting (the upper panel: Protein) and semi-quantitative RT-PCR (the lower panel: mRNA), respectively. β-actin is a loading control for each. […] MCF-7 cells were treated with the ERAP1-peptide and/or E2 in the presence of 1 μM MG-132 for 1 hour. Then, the cell lysate was immunoprecipitated with anti-ERα antibody.
Down-regulation of ERα was evaluated by semi-quantitative reverse transcription PCR. Complete RNA was extracted using RNeasy Mini purification kit (Qiagen) from E2-treated cells in the presence or in the absence of the ERAP1 peptide, and reverse-transcribed into cDNA using Superscript II reverse transcriptase (Invitrogen), oligo dT primer (nvitrogen) and 25 mM dNTP Mixture (Invitrogen). mRNAs of ERα and β-actin were measured with GeneAmp PCR system (Applied Biosystems, Foster, Calif., USA). The primers are as described below: […]

[2] = test system: transcriptional activity of ERα (ERE); assay: ERE-luciferase reporter assay in MCF-7 cells; format: cell-based, human; conditions: 10 nM E2 24 hours
Protocol: FIG. 3-2 is a diagram illustrating promotion effect of PHB2 nuclear translocation and suppression effect of the transcriptional activation of ER by ERAP1-peptide treatment. (C) illustrates representative images of stained immune cells, showing the localization of the ERAP1-peptide (HA-tagged ERAP1-peptide) and PHB2. MCF-7 cells were treated with 10 μM HA-tagged ERAP1-peptide for 24 hours in the presence or in the absence of 10 nM E2. After the immobilization, the cells were subjected to immunonfluorescent staining using an anti-HA antibody, an anti-PHB2 antibody and DAPI (for discriminating the nucleus). The arrow indicates the nuclear-translocated ERAP1-peptide. […] Then, immediately, the cells were stimulated with 10 nM E2 for 24 hours. TAM indicates the tamoxifen treatment.
(§1) FIG. 3-3 is as diagram illustrating the results of the luciferase assay by which the inhibition effect of the ERAP1-peptide was evaluated. MCF-7 cells temporarily transfected with an ERE-luciferase reporter vector (F) or an AP-1-luciferase reporter vector (F) were treated with the ERAP1-peptide, the scramble peptide or the mutant peptide in the concentrations shown in the […]. Then, immediately, the cells were stimulated with 10 nM E2 for 24 hours. TAM indicates the tamoxifen treatment.
(§2) FIG. 4-3 is a diagram illustrating that the ERAP1-peptide promotes nuclear translocation of PHB2. (C) and (D) are figures that show the results of the luciferase assay by which the inhibition effect of the ERAP1-peptide on the ERα transcriptional activity was evaluated. MCF-7 cells temporarily transfected with an ERE-luciferase reporter vector (C) or an AP-1-luciferase reporter vector (D) were treated with the ERAP1-peptide in the concentrations shown in the figure or 10 nM tamoxifen. Then, immediately, the cells were stimulated with 10 nM E2 thr 24 hours.
(§3) For ERE reporter assay, MCF-7 cells were transfected with ERE reporter (SABiosciences, Frederick, Md., USA) in accordance with the instruction of the manufacturer. For AP-1 reporter assay, MCF-7 cells were transfected with AP-1 reporter (mouse IL-11 promoter comprising two tandem AP-1 sites subcloned into PGL2-basic vector), c-fos, c-Jun and pRL-TK as an internal standard. After 16 hours from the transfection, the culture medium was exchanged with an assay culture medium (Opti-MEM, 10% FBS, 0.1 mM NEAA, 0.1 mM Sodium pyruvate and 10 μg/ml insulin) After 24 hours from the transfection, the cells were treated with E2 and/or the ERAP1-peptide or 24 hours. The cells were harvested, and the activities of luciferase and Renilla-luciferase were evaluated using Promega dual luciferase reporter assay (Tokyo, Japan). In consideration of the transfection efficiency, all of the data were standardized by the activity of Renilla-luciferase.

[3] = molecular target: T1, binding of inherent ERAP1 and inherent PHB2/REA (Homo sapiens, UniProt Q99623); assay: Inhibition of ERAP1-PHB2/REA binding in cells, immunoprecipitation-Western blotting; format: cell-based; conditions: MCF-7 and KPL-3C cells; 10 μM peptide; 10 nM E2 24 hours
T1 construct: endogenous in cells; host or cells: MCF-7 and KPL-3C breast cancer cells
T1 sequence (Q99623 2-299 limits assumed): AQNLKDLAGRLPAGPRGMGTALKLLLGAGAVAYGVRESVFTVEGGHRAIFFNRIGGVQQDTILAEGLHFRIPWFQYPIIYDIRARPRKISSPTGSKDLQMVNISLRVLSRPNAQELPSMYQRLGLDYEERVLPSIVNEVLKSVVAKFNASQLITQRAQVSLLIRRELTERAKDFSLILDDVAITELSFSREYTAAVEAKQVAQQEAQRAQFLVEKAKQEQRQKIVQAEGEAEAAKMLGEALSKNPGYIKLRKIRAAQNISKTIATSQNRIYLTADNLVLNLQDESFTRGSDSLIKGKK

[4] = test system: transcriptional activity of ERα (AP-1); assay: AP-1-luciferase reporter assay in MCF-7 cells; format: cell-based, human; conditions: 10 nM E2 24 hours
Protocol: as §1, §2, §3

MCF-7 cells = assay: E2-dependent cell proliferation assay (MTT/CCK-8), MCF-7; format: cell-based, human; conditions: 10 nM E2, up to 24 hours
Protocol: FIG. 6-1 is a diagram illustrating that ERAP1-peptide treatment suppresses ERα-dependent cell proliferation of breast cancer cell lines. (A) and (B) show the results of MTT assay by which the inhibition effect of the ERAP1-peptide in the E2-dependent cell proliferation was evaluated. MCF-7 cells were treated with the ERAP1-peptide (A, B) the ERAP1-scramble peptide (B) or the ERAP1-mutant peptide (B).
FIG. 7-1 is a diagram illustrating that ERAP1-peptide treatment suppresses ERα-dependent cell proliferation of breast cancer cell lines. […] KPL-3C cells were treated with the ERAP1-peptide, the scramble peptide or the mutant peptide. Then, immediately, the cells were stimulated with 10 nM E2 for 24 hours. […] Then, immediately, the cells were stimulated with 10 nM E2. Then, the ERAP1-peptide was added every day for […]. […] The arrow indicates addition of the ERAP1-peptide.
FIG. 7-3 is a diagram illustrating that ERAP1-peptide treatment suppresses ERα-dependent cell proliferation of breast cancer cell lines. […] MCF-7 cells were treated with 10 μM ERAP1-peptide. Then, immediately, the cells were stimulated with 10 nM E2 (white square). Then, 10 μM ERAP1-peptide was added every day for four days (black square).
FIG. 20 is a diagram illustrating the results of evaluations for the influence of the difference of the sequence on E2-dependent cell proliferation suppression effect. […] Then, immediately, the cells were stimulated with E2 for 24 hours.
MCF-7 cells were suspended in MEM (Invitrogen, Carlsbad, Calif., USA) reinforced with 10% FBS (Nichirei Biosciences, Tokyo, Japan), 1% antibiotic/antimycotic solution (Invitrogen), 0.1 mM NEAA (Tnvitrogen), 1 mM sodium pyruvate and 10 μg/ml insulin (Sigma, St. Louis, Mo., USA). Then, the cell suspension was seeded in a 48-well plate (2×10^4 cells/200 μl), a 24-well plate (1×10^5 cells/1 ml), a 6-well plate (5×10^5 cells/2 ml) or 10 cm dish (2×10^6 cells/10 ml). The cells were maintained at 37° C. in humidified atmosphere containing 5% carbon dioxide. On the next day of the seeding, the culture medium was exchanged with phenol red-free DMEM/F12 (Invitrogen) reinforced with FBS, an antibiotic/antimycotic solution, NEAA, sodium pyruvate and insulin. After 24 hours, the cells were treated with 10 nM 17β estradiol (E2, Sigma). The ERAP-1 peptide was added just before the E2 stimulation in the inhibition test.
Using Cell-Counting Kit-8 (CCK-8, Dojindo, Kumamoto, Japan), the cell proliferation assay was performed. […] Then, the absorbance at 450 nm was measured and the number of living cells in each well was calculated.
The cell proliferation assay was evaluated using Cell-Counting Kit-8 (CCK-8, Dojindo, Kumamoto, Japan). […] Then, 100 μl from each well was moved to a 96-well plate, and the absorbance at 450 nm was measured with a microplate reader.

[5] = H-89 30 minutes, then E2 24 hours
[6] = comparison with siPKA, increasing dose of H-89

## O=S(=O)(NCCNC/C=C/c1ccc(Br)cc1)c1cccc2cnccc12 [H-89]
[1]; [5]
  phosphorylation of the threonine residue of ERAP1: decreased in dose-dependent manner
  phosphorylations of the serine and tyrosine residues of ERAP1: remarkably decreased at 0.5 μM
[1]; [6]
  Ser39 phosphorylation of PHB2/REA after E2 treatment: as the dose of H-89 increased, Ser39 phosphorylation of PHB2/REA also decreased
  phosphorylation of the serine residue of ERAP1 after E2 treatment: as the dose of H-89 increased, disappearance of the phosphorylation was confirmed
[1]; stimulated by E2 and treated with H-89, no peptide
  phosphorylation of Ser39 of PHB2/REA: remarkable recovery was recognized
[1]; with ERAP-peptide, 20 μM H-89
  phosphorylation of Ser39 of PHB2/REA: the phosphorylation completely disappeared

## CC(C)C[C@@H](C=O)NC(=O)[C@H](CC(C)C)NC(=O)[C@H](CC(C)C)NC(=O)OCc1ccccc1 [MG132, reference compound] (Cbz-Leu-Leu-Leu-aldehyde)
ERα
  protein decrease and polyubiquitination of ERα with E2: the protein decrease of ERα was suppressed and polyubiquitination of ERα was recognized

## AMLSALTLALRQR (SEQ ID NO: 29) (ERAP1-mutant peptide)
[2]
  transcriptional activity of ERα in ERE: no change was recognized
[3]
  inhibition of the binding of inherent ERAP1 and inherent PHB2/REA: not recognized in any of the cells
[4]
  transcriptional activity of ERα in AP-1: no change was recognized

## ATLSQMLSDLTLQ (SEQ ID NO: 30) (ERAP1 dominant negative peptide) [ERAP1-peptide-2, 161-173 amino acid residues of ERAP1]
MCF-7 cells
  E2-dependent cell proliferation: suppressed the E2-dependent cell proliferation in dose-dependent manner
